Values joined by “and” are separate entries in the source; they are usually repeats but may differ in a detail not shown here. Equal values may be shown once. Read-outs that look alike come from different tables or passages of the source.
Key:
SMARCA2 = SMARCA2 (Homo sapiens, UniProt P51531); experiment: SMARCA2 capillary electrophoresis protein assay in other cell lines (A549, NCI-H1568, HCT116, LU99, HCC-364, HCT-15, HCC4006, SK-N-AS); assay type: cell-based; design: endogenous in cells; host or cells: RKO, NCI-H1568, A549, HCT116, LU99, HCC-364, HCT-15, HCC4006, SK-N-AS
Chain of SMARCA2 (P51531 whole entry): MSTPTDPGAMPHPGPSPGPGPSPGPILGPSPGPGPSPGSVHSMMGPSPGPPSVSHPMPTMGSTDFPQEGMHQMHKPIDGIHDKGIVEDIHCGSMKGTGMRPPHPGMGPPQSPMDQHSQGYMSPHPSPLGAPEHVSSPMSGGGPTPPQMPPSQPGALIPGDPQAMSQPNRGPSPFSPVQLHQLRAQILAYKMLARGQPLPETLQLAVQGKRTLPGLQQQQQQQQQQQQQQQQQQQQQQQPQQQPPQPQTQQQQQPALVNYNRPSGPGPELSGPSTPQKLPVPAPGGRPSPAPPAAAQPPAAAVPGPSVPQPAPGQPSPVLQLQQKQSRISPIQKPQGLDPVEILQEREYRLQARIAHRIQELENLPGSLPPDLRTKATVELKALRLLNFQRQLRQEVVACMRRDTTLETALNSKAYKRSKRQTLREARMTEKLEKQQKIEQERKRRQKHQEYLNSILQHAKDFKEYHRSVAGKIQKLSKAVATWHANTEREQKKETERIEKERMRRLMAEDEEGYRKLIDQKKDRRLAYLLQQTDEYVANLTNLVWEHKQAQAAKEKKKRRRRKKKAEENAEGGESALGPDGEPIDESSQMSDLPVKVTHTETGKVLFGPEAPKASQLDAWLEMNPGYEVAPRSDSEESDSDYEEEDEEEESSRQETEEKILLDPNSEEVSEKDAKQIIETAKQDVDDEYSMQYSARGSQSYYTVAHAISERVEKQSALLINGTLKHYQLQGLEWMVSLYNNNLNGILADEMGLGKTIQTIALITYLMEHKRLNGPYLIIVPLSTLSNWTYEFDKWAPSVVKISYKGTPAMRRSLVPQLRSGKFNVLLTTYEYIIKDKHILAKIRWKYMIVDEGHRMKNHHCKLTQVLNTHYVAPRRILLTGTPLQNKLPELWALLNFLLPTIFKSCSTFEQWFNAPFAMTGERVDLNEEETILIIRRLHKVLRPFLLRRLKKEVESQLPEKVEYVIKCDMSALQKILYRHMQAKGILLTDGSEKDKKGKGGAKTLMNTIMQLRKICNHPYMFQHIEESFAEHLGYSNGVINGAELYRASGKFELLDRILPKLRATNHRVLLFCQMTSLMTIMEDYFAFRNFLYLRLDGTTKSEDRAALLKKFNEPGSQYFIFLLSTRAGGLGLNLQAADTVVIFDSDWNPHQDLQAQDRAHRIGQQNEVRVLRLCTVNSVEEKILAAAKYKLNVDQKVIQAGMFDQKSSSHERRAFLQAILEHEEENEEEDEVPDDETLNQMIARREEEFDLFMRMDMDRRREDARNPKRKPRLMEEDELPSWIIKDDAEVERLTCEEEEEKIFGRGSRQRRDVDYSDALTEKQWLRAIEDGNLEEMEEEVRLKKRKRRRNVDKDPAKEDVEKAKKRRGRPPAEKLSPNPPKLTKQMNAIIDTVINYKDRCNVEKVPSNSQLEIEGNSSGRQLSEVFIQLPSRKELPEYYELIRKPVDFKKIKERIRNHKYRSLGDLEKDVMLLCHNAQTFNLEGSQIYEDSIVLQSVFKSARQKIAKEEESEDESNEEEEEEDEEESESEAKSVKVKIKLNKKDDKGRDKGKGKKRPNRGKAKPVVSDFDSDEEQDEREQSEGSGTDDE
Experimental: 130,000–200,000 cells were seeded in 24-well plates and incubated until settled down or overnight. Compounds were dissolved in DMSO and added to cells in indicated concentrations using a digital dispenser following an optional media change. Cells were incubated for 4 or 18 h as indicated. For SMARCA2/4 half-life determination, 150,000 or 200,000 cells were seeded in 24-well plates. The next day, 50 µg/ml cycloheximide (Sigma) was added and cells were incubated for 1–24 h. For SMARCA2/4 re-synthesis measurements, 200,000 cells were seeded in 24-well plates. The next day, 100 nM compound 6 was added for 4 h to degrade SMARCA2/4, and a sample was taken as baseline for normalisation. To allow re-synthesis, a VHL binder (compound 32, 25 or 50 µM) was then added for 3 or 24 h. Medium was removed, cells were washed with PBS and lysed with 80 µl Lysis Buffer (MSD Tris Lysis Buffer (#R60TX-2) + Halt Inhibitor Cocktail (100x) + Benzonase 0.5 µL/ml). Samples were frozen at −80 °C and thawed at room temperature before use. Samples were transferred to a V-bottom plate and insoluble debris was pelleted by centrifugation for 5 min at maximum speed. The supernatant was transferred to a fresh plate. Master Mix and Ladder were prepared according to manufacturer’s instructions for 12–230 kDa Wes Separation Module, 8 × 25 capillary cartridges, Protein Simple #SM-W004 with Anti-Rabbit Detection Module for Wes, Peggy Sue or Sally Sue, Protein Simple #DM-001. 4.8 µl lysate were mixed with 1.2 µl Master Mix to achieve a protein concentration of ~0.5 µg/µl. Antibodies were diluted in Antibody Diluent II (SMARCA2 Sigma #HPA029981 RRID:AB_10602406 1:25–100, SMARCA4 Cell Signalling #49360 clone D1Q7F RRID:AB_2728743 1:15–120 or Abcam #ab110641 clone EPNCIR111A RRID:AB_10861578 1:60, GAPDH Abcam #ab9485 RRID:AB_307275 1:250). Wes plates were prepared and run according to manufacturer’s instructions. Proteins were quantified with accompanying Compass Software. SMARCA2/4 protein levels were normalised to GAPDH. […] Where applicable, curves were fitted using a 4-parametric logistic model.

P-gp = experiment: Bidirectional permeability measurement in Caco-2 cells; assay type: in vitro ADME; settings: human, Caco-2, pH 7.4, with zosuquidar 5 µM
How it was run: (§1)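 Caco-2 monolayers grown 14–21 days, preincubated 24 h with medium containing 1 µM compound; bidirectional transport sampled up to 2 h, quantified by LC-MS/MS, ± 5 µM zosuquidar (P-gp inhibitor). Papp,AB and Papp,BA from receiver amount, donor C0, area and time; efflux ratio = Papp,BA/Papp,AB (duplicate means). TEER checked per plate.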

[1] = as above; assay type: in vitro ADME; settings: human
How it was run: as §1

Plasma protein binding = assay type: in vitro ADME
Experimental: Binding of compound to plasma proteins was determined by equilibrium dialysis of 3 µmol/L compound in plasma (or plasma dilutions in PBS) against PBS through an 8 kDa molecular-weight cut-off cellulose membrane (RED device, Thermo Fisher) at 37 °C for 5 h. After incubation, aliquots from donor and acceptor compartments were precipitated and the concentrations in the supernatants were determined by quantitative LC-MS/MS. Calibration and quality control samples were prepared using blank plasma and internal standard. The fraction unbound was calculated as ratio of the compound concentration in the acceptor compartment to the concentration in the donor compartment.

[2] = SK-N-AS_SM2, four-parameter fit

Cc1ncsc1-c1ccc(C(CCC(C)CCN2CCC(c3ccc4c(c3)n(C3CCCC3)c3nc(=O)c5c(Br)cccc5n43)CC2)NC(=O)C2CC(O)CN2C(=O)C(NC(=O)C2(F)CC2)C(C)(C)C)cc1 (stereo not shown) [ACBI2]
Dmax (SMARCA2; NCI-H1568 (4 h), mean ± SD): 86 ± 6%
DC50 (SMARCA2; NCI-H1568 (4 h), mean ± SD, read-out: SMARCA2 DC50): 13 ± 14 nM
Bottom (% protein remaining, four-parameter fit) (SMARCA2; NCI-H1568, 4h): 6.286%
HillSlope (protein remaining) (SMARCA2; NCI-H1568, 4h): -1.738
LogEC50 (protein remaining) (SMARCA2; NCI-H1568, 4h): -8.191 log10(mol/l)
Top (% protein remaining, four-parameter fit) (SMARCA2; NCI-H1568, 4h): 87.56%
% protein remaining (SMARCA2; NCI-H1568, 4h, conc 1.00001e-10 mol/l): 96.6234% and 94.5884%
% protein remaining (SMARCA2; NCI-H1568, 4h, conc 1.52416e-10 mol/l): 71.8933%
% protein remaining (SMARCA2; NCI-H1568, 4h, conc 3.1623e-10 mol/l): 72.7669% and 75.3978%
% protein remaining (SMARCA2; NCI-H1568, 4h, conc 4.57247e-10 mol/l): 96.5512%
% protein remaining (SMARCA2; NCI-H1568, 4h, conc 1.00001e-9 mol/l): 90.5385% and 93.373%
% protein remaining (SMARCA2; NCI-H1568, 4h, conc 1.37174e-9 mol/l): 95.3256%
% protein remaining (SMARCA2; NCI-H1568, 4h, conc 3.1623e-9 mol/l): 36.986%
% protein remaining (SMARCA2; NCI-H1568, 4h, conc 4.11523e-9 mol/l): 94.3111%
% protein remaining (SMARCA2; NCI-H1568, 4h, conc 1.00001e-8 mol/l): 19.3906% and 27.9502%
% protein remaining (SMARCA2; NCI-H1568, 4h, conc 1.23457e-8 mol/l): 37.9279%
% protein remaining (SMARCA2; NCI-H1568, 4h, conc 3.1623e-8 mol/l): 8.319% and 13.4554%
% protein remaining (SMARCA2; NCI-H1568, 4h, conc 3.7037e-8 mol/l): 11.4262%
% protein remaining (SMARCA2; NCI-H1568, 4h, conc 1.11111e-7 mol/l): 8.194%
% protein remaining (SMARCA2; NCI-H1568, 4h, conc 3.1623e-7 mol/l): 2.032% and 3.543%
% protein remaining (SMARCA2; NCI-H1568, 4h, conc 3.33333e-7 mol/l): 6.383%
% protein remaining (SMARCA2; NCI-H1568, 4h, conc 1e-6 mol/l): 9.793%
% protein remaining (SMARCA2; NCI-H1568, 4h, conc 1.00001e-6 mol/l): 2.382% and 3.308%
% protein remaining (SMARCA2; NCI-H1568, 4h, conc 3.1623e-6 mol/l): 2.029% and 3.947%
DC50 (SMARCA2; NCI-H1568, 4h, individual replicates, read-out: NCI-H1568 (4h) SMARCA2 DC50): 4.72 nM and 32.5 nM and 13 nM
DC50 (SMARCA2; NCI-H1568, 4h, read-out: EC50 (protein remaining)): 6.44 nM
Bottom (% protein remaining, four-parameter fit) (SMARCA2; NCI-H1568, 8h): 6.315%
HillSlope (protein remaining) (SMARCA2; NCI-H1568, 8h): -1.161
LogEC50 (protein remaining) (SMARCA2; NCI-H1568, 8h): -8.44 log10(mol/l)
Top (% protein remaining, four-parameter fit) (SMARCA2; NCI-H1568, 8h): 119.8%
% protein remaining (SMARCA2; NCI-H1568, 8h, conc 4.57247e-10 mol/l): 112.24%
% protein remaining (SMARCA2; NCI-H1568, 8h, conc 1.37174e-9 mol/l): 87.7845%
% protein remaining (SMARCA2; NCI-H1568, 8h, conc 4.11523e-9 mol/l): 63.6536%
% protein remaining (SMARCA2; NCI-H1568, 8h, conc 1.23457e-8 mol/l): 24.8248%
% protein remaining (SMARCA2; NCI-H1568, 8h, conc 3.7037e-8 mol/l): 13.998%
% protein remaining (SMARCA2; NCI-H1568, 8h, conc 1.11111e-7 mol/l): 8.2%
% protein remaining (SMARCA2; NCI-H1568, 8h, conc 3.33333e-7 mol/l): 6.313%
% protein remaining (SMARCA2; NCI-H1568, 8h, conc 1e-6 mol/l): 7.6382%
% protein remaining (SMARCA2; NCI-H1568, 8h, conc 3e-6 mol/l): 6.726%
DC50 (SMARCA2; NCI-H1568, 8h, read-out: EC50 (protein remaining)): 3.63 nM
Bottom (% protein remaining, four-parameter fit) (SMARCA2; NCI-H1568, 18h): 2.272%
HillSlope (protein remaining) (SMARCA2; NCI-H1568, 18h): -0.7655
LogEC50 (protein remaining) (SMARCA2; NCI-H1568, 18h): -9.556 log10(mol/l)
Top (% protein remaining, four-parameter fit) (SMARCA2; NCI-H1568, 18h): 215.6%
% protein remaining (SMARCA2; NCI-H1568, 18h, conc 1.52416e-10 mol/l): 134.073%
% protein remaining (SMARCA2; NCI-H1568, 18h, conc 4.57247e-10 mol/l): 84.9656%
% protein remaining (SMARCA2; NCI-H1568, 18h, conc 1.37174e-9 mol/l): 57.0296%
% protein remaining (SMARCA2; NCI-H1568, 18h, conc 4.11523e-9 mol/l): 23.442%
% protein remaining (SMARCA2; NCI-H1568, 18h, conc 1.23457e-8 mol/l): 12.5025%
% protein remaining (SMARCA2; NCI-H1568, 18h, conc 3.7037e-8 mol/l): 5.834%
% protein remaining (SMARCA2; NCI-H1568, 18h, conc 1.11111e-7 mol/l): 3.6967%
% protein remaining (SMARCA2; NCI-H1568, 18h, conc 3.33333e-7 mol/l): 2.8858%
% protein remaining (SMARCA2; NCI-H1568, 18h, conc 1e-6 mol/l): 3.302%
% protein remaining (SMARCA2; NCI-H1568, 18h, conc 3e-6 mol/l): 4.787%
DC50 (SMARCA2; NCI-H1568, 18h, read-out: EC50 (protein remaining)): 0.278 nM
Bottom (best-fit value, % protein remaining) (SMARCA2; [2]): 20.4%
HillSlope (SMARCA2; [2]): -1.475
LogEC50 (SMARCA2; SK-N-AS_SM2, log10 of concentration in mol/l): -7.468
DC50 (SMARCA2; SK-N-AS_SM2, protein degradation, four-parameter fit, read-out: EC50 (the source's name)): 34 nM
Papp A→B at 1 µM (P-gp; Modified Caco-2 + PGPi (Zosuquidar), read-out: Modified Caco-2 + PGPi (Zosuquidar) Pab): 8 ± 4 ×10⁻⁶ cm/s
Papp B→A at 2 h, 1 µM (P-gp; Modified Caco-2, b to a, + PGPi (Zosuquidar), read-out: Modified Caco-2 Pba + PGPi (Zosuquidar)): 11 ×10⁻⁶ cm/s
Papp A→B at 1 µM ([1]; Caco-2, pH 7.4, Caco-2, read-out: Caco-2 Pab): 2 ± 0.2 ×10⁻⁶ cm/s
Papp A→B at 1 µM ([1]; Caco-2, pH 7.4, Modified Caco-2, read-out: Modified Caco-2 Pab): 9 ± 9 ×10⁻⁶ cm/s
PPB fu 10% Human (Plasma protein binding; 10% human): < 0.054%
PPB fu 10% Rat (Plasma protein binding; 10% rat): < 0.053% and < 0.048%
fraction unbound at 5 h, 3 µmol/L (Plasma protein binding; bovine, 10% calf plasma dilution in PBS, 10% calf, fraction unbound, read-out: PPB fu 10% Calf): 0.0035
fraction unbound at 5 h, 3 µmol/L (Plasma protein binding; bovine, 10% plasma (plasma dilution in PBS), 10% calf, read-out: PPB fu 10% Calf): 0.00349
fraction unbound at 5 h, 3 µmol/L (Plasma protein binding; human, 10% plasma (plasma dilution in PBS), 10% human, read-out: PPB fu 10% Human): < 0.00045
fraction unbound at 5 h, 3 µmol/L (Plasma protein binding; human, plasma, human, fraction unbound, read-out: PPB fu Human): < 0.0005
fraction unbound at 5 h, 3 µmol/L (Plasma protein binding; mouse, 10% plasma (plasma dilution in PBS), 10% mouse, read-out: PPB fu 10% Mouse): < 0.00051
fraction unbound at 5 h, 3 µmol/L (Plasma protein binding; mouse, plasma, mouse, fraction unbound, read-out: PPB fu Mouse): < 0.0005
fraction unbound at 5 h, 3 µmol/L (Plasma protein binding; rat, 10% plasma (plasma dilution in PBS), 10% rat, read-out: PPB fu 10% Rat): < 0.00054
fraction unbound at 5 h, 3 µmol/L (Plasma protein binding; rat, plasma, rat, fraction unbound, read-out: PPB fu Rat): < 0.0005

Reference: paper PMC9551036, “A selective and orally bioavailable VHL-recruiting PROTAC achieves SMARCA2 degradation in vivo” (Nature Communications, 2022)
